According to patent publication US20240018119A1, “CARBOXAMIDE DERIVATIVE AND PHARMACEUTICAL COMPOSITION COMPRISING SAME AS ACTIVE INGREDIENT FOR PREVENTING OR TREATING MENTAL ILLNESS” (DAEGU-GYEONGBUK MEDICAL INNOVATION FOUNDATION, priority 2020, published 2024):
Like-named read-outs stand apart in the source and are kept apart here.

What was measured:
Format in all cases: cell-based
[1] = biological target: T1, serotonin transporter (Homo sapiens, UniProt P31645); assay: Serotonin reuptake inhibition in transporter-transfected HEK-293 cells ([3H]-5-HT); details: for Triple reuptake inhibition (Ratio %) SERT: compound 1 μM, [3H]-5-HT, relative to control without compound (100%), lower = more inhibition
T1 construct: expressed in transfected cells; host or cells: HEK-293
T1 sequence (P31645 whole entry): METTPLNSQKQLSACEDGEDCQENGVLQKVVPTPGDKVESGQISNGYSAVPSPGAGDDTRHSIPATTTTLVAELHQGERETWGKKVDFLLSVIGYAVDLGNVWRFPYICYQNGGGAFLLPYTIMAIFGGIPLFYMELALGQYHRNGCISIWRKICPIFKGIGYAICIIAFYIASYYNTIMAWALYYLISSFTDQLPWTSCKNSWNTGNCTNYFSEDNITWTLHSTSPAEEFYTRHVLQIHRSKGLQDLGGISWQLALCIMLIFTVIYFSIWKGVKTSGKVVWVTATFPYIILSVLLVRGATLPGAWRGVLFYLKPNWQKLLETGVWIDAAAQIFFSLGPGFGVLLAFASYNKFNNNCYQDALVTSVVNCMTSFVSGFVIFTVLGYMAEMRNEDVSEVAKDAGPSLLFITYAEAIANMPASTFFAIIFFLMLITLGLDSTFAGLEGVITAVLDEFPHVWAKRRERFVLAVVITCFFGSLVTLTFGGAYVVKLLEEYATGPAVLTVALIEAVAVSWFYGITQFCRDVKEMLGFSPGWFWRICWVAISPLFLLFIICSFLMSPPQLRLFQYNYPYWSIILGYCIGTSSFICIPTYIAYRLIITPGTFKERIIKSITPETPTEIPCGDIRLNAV
Protocol: (§1) To evaluate the reuptake inhibitory effect on dopamine, the dopamine transporter cDNA was transfected using the HEK-293 cell line, and then sub-seeded in a 24 well plate the next day. After removing the medium, each compound of the Examples or Comparative Examples diluted to 1 μM in uptake buffer was added to a concentration of 200 μl/well and cultured at 37° C. for 15 minutes. 100 μl of uptake buffer containing 20-30 nM [3H]-DA was added and cultured at 37° C. for 5 minutes. The reaction solution was quickly removed and washed three times with 1 ml ice-cold uptake buffer. After dissolving the resultant in 1% SDS (0.5 ml), the degree of binding of radioisotope-labeled dopamine to the transporter was measured.
(§2) For norepinephrine (NE) and serotonin (5-HT), the degree of binding of radioisotope-labeled norepinephrine or serotonin to the transporter was measured in the same manner as above, except that cells transfected with NE or 5-HT transporter cDNA were used and [3H]-NE or [3H]-5-HT was used as a substrate.
(§3) In addition, when evaluating the reuptake inhibitory effect on dopamine, norepinephrine, and serotonin, the same method was performed without treating each compound of the Examples or Comparative Examples as a control, the degree of binding of radioisotope-labeled dopamine, norepinephrine, and serotonin to the transporter was measured, and by using this as a standard (100%), the triple reuptake inhibitory effect was evaluated as a relative ratio (Ratio %). That is, in the control group, the binding of dopamine, norepinephrine, and serotonin to transporters is not inhibited, but when each compound of the Examples is treated and thus the binding is inhibited, the Patio % value decreases.
In addition, in the case of the compound of Comparative Example 1, IC50 was obtained by the same method as the Example Compounds.

[2] = biological target: T2, norepinephrine transporter (Homo sapiens, UniProt P23975); assay: Norepinephrine reuptake inhibition in transporter-transfected HEK-293 cells ([3H]-NE); details: for Triple reuptake inhibition (Ratio %) NET: compound 1 μM, [3H]-NE, relative to control without compound (100%), lower = more inhibition
T2 construct: expressed in transfected cells; host or cells: HEK-293
T2 sequence (P23975 whole entry, species assumed): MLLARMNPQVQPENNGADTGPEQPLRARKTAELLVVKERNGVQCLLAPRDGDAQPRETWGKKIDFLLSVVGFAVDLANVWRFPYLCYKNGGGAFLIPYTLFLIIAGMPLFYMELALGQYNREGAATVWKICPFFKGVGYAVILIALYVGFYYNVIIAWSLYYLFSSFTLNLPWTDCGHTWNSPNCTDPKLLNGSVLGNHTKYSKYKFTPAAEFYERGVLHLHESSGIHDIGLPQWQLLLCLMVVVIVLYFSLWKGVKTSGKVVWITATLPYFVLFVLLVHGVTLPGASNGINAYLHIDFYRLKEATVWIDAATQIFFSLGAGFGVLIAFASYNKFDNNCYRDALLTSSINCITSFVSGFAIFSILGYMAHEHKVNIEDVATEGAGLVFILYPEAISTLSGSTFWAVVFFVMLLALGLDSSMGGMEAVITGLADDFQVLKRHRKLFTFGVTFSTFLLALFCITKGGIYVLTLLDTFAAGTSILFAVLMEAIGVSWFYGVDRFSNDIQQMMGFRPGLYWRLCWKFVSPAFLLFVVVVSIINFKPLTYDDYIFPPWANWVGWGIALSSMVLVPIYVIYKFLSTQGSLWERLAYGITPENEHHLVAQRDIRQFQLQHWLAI
Protocol: as §1, §2, §3
(§4) Meanwhile, the Patio % values were compared, and in the case of the compounds of Examples 6, 9, 10, 19, 20, 22, 24, 28, 30, 31, 32, 33, 35, 41, 42, 48, 49, 51, 55, 56, 59, 61, 63, 64, 65, 66, 74 and 76 with excellent reuptake inhibitory effects on dopamine, norepinephrine and serotonin, the concentration at which the Ratio % is 50% was calculated using a total of 6 concentrations (1 nM, 5 nM, 10 nM, 50 nM, 100 nM, and 1 μM) and expressed as IC50. In addition, in the case of the compound of Comparative Example 1, IC50 was obtained by the same method as the Example Compounds.

[3] = biological target: T3, dopamine transporter (Homo sapiens, UniProt Q01959); assay: Dopamine reuptake inhibition in transporter-transfected HEK-293 cells ([3H]-DA); details: for Triple reuptake inhibition (Ratio %) DAT: compound 1 μM, 20-30 nM [3H]-DA, relative to control without compound (100%), lower = more inhibition
T3 construct: expressed in transfected cells; host or cells: HEK-293
T3 sequence (Q01959 whole entry): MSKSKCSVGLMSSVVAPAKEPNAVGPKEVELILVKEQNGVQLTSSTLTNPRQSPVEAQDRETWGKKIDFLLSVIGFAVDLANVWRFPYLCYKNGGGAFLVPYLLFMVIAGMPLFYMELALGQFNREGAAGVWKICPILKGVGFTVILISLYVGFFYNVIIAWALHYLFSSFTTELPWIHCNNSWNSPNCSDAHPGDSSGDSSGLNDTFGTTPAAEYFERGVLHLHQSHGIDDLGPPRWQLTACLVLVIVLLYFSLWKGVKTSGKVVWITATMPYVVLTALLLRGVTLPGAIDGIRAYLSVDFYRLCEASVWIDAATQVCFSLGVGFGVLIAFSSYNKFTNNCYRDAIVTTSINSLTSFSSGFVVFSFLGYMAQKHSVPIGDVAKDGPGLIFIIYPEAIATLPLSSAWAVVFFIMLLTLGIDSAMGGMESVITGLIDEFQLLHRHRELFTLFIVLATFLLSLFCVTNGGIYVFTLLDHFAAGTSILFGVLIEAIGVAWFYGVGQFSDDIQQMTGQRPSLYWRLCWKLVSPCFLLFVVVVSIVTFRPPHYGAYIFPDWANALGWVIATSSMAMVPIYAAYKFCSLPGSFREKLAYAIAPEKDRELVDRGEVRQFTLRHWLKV
Protocol: as §1, §3, §4

[4] = concentration at which Ratio % is 50%, 6 concentrations 1 nM to 1 μM, read-out: Triple reuptake inhibition (IC50, μM) SERT
[5] = concentration at which Ratio % is 50%, 6 concentrations 1 nM to 1 μM, read-out: Triple reuptake inhibition (IC50, μM) NET
[6] = concentration at which Ratio % is 50%, 6 concentrations 1 nM to 1 μM, read-out: Triple reuptake inhibition (IC50, μM) DAT

Row | SMILES | Triple reuptake inhibition (Ratio %) SERT [1] [%] | Triple reuptake inhibition (Ratio %) NET [2] [%] | Triple reuptake inhibition (Ratio %) DAT [3] [%] | IC50 [1, 4] [µM] | IC50 [2, 5] [µM] | IC50 [3, 6] [µM] | IC50 [1] [µM] | IC50 [2] [µM] | IC50 [3] [µM]
1 | O=C(NCCN1CCN(CC2CCOCC2)CC1)c1cc2ccccc2[nH]1 [Example 29, N-(2-(4-((tetrahydro-2H-pyran-4-yl)methyl)piperazin-1-yl)ethyl)-1H-indol-2-carboxamide] | 94.24 | 97.94 | 113.83 |  |  |  |  |  | 
2 | O=C(NCCN1CCC(Cc2ccccc2)CC1)c1cc2cc(Cl)c(Cl)cc2[nH]1 [Example 47, N-(2-(4-benzylpiperidin-1-yl)ethyl)-5,6-dichloro-1H-indol-2-carboxamide] | 75.98 | 94.59 | 41.80 |  |  |  |  |  | 
3 | O=C(NCCN1CCC(Cc2ccccc2)CC1)c1nc2ccccc2[nH]1 [Example 61, N-(2-(4-benzylpiperidin-1-yl)ethyl)-1H-benzo[d]imidazol-2-carboxamide] | 62.21 | 73.75 | 32.78 | 2.28 | 3.17 | 0.97 |  |  | 
4 | COc1ccc2[nH]c(C(=O)NCCN3CCC(Cc4ccccc4)CC3)nc2c1 [Example 59, N-(2-(4-benzylpiperidin-1-yl)ethyl)-5-methoxy-1H-benzo[d]imidazol-2-carboxamide] | 45.80 | 43.43 | 17.60 | 0.198 | 0.257 | 0.198 |  |  | 
5 | O=C(NCCN1CCC(Cc2ccccc2)CC1)c1cc2cc(F)c(F)cc2[nH]1 [Example 32, N-(2-(4-benzylpiperidin-1-yl)ethyl)-5,6-difluoro-1H-indol-2-carboxamide] | 54.81 | 66.78 | 28.03 | 2.04 | 1.47 | 0.824 |  |  | 
6 | CCCCOc1ccc2cc(C(=O)NCCN3CCC(Cc4ccccc4)CC3)[nH]c2c1 [Example 42, N-(2-(4-benzylpiperidin-1-yl)ethyl)-6-butoxy-1H-indol-2-carboxamide] | 46.64 | 44.53 | 45.67 | 0.68 | 0.171 | 0.338 |  |  | 
7 | O=C(NCCN1CCC(Cc2ccc(Cl)c(Cl)c2)CC1)c1cc2cc(O)c(O)cc2[nH]1 [Example 65, N-(2-(4-(3,4-dichlorobenzyl)piperidin-1-yl)ethyl)-5,6-dihydroxy-1H-indol-2-carboxamide] | 10.79 | 73.83 | 7.57 | 0.044 | 5.73 | 0.049 |  |  | 
8 | O=C(NCCN1CCC(Cc2ccccc2)CC1)c1cc2cc(C(F)(F)F)ccc2[nH]1 [Example 40, N-(2-(4-benzylpiperidin-1-yl)ethyl)-5-(trifluoromethyl)-1H-indol-2-carboxamide] | 92.65 | 59.50 | 35.13 |  |  |  |  |  | 
9 | O=C(NCCN1CCC(Cc2ccc(F)c(F)c2)CC1)c1cc2ccccc2[nH]1 [Example 27, N-(2-(4-(3,4-difluorobenzyl)piperidin-1-yl)ethyl)-1H-indol-2-carboxamide] | 75.39 | 69.72 | 71.77 |  |  |  |  |  | 
10 | O=C(NCCn1ccc(-c2ccc(F)cn2)n1)c1cc2ccccc2[nH]1 [Example 52, N-(2-(3-(5-fluoropyridin-2-yl)-1H-pyrazol-1-yl)ethyl)-1H-indol-2-carboxamide] | 93.19 | 82.74 | 85.39 |  |  |  |  |  | 
11 | O=C(NCCN1CCN(c2cccc(C(F)(F)F)c2)CC1)c1ccc2cc(Br)ccc2c1 [Example 2] | 78.42 | 120.40 | 107.77 |  |  |  |  |  | 
12 | O=C(CCN1CCC(Cc2ccccc2)CC1)Nc1cc2ccccc2[nH]1 [Example 76, 3-(4-benzylpiperidin-1-yl)-N-(1H-indol-2-yl)propanamide] | 68.60 | 32.60 | 36.87 |  |  |  | 0.811 | 0.496 | 0.278
13 | O=C(NCCN1CCC(c2ccc(Cl)c(Cl)c2)CC1)c1cc2ccccc2[nH]1 [Example 28, N-(2-(4-(3,4-dichlorophenyl)piperidin-1-yl)ethyl)-1H-indol-2-carb oxamide] | 82.81 | 88.77 | 37.16 |  |  | 0.225 |  |  | 
14 | CN(CCNC(=O)c1cc2ccccc2[nH]1)Cc1ccc2ccccc2c1 [Example 68, N-(2-(methyl(napthalen-2-ylmethyl)amino)ethyl)-1H-indol-2-carboxamide] | 87.07 | 100.99 | 90.63 |  |  |  |  |  | 
15 | O=C(NCCN1CCC(Cc2ccccc2)CC1)c1cc2c(Cl)cc(Cl)cc2[nH]1 [Example 39, N-(2-(4-benzylpiperidin-1-yl)ethyl)-4,6-dichloro-1H-indol-2-carboxamide] | 76.27 | 63.99 | 40.9 |  |  |  |  |  | 
16 | O=C(NCCN1CCC(Cc2ccc(Cl)c(Cl)c2)CC1)c1cc2cc(F)ccc2[nH]1 [Example 51, N-(2-(4-(3,4-dichlorobenzyl)piperidin-1-yl)ethyl)-5-fluoro-1H-indol-2-carboxamide] | 27.71 | 83.07 | 41.61 | 0.331 |  | 0.636 |  |  | 
17 | O=C(N[C@@H]1CC[C@@H](c2ccc(Cl)c(Cl)c2)c2ccccc21)c1cc2ccccc2[nH]1 [Example 62, N-((1R,4S)-4-(3,4-dichlorophenyl)-1,2,3,4-tetrahydronaphthalen-1-yl)-1H-indol-2-carboxamide] | 94.51 | 144.33 | 79.43 |  |  |  |  |  | 
18 | COc1ccc2[nH]c(C(=O)NCCN3CCC(Cc4ccccc4)CC3)cc2c1 [Example 33, N-(2-(4-benzylpiperidin-1-yl)ethyl)-5-methoxy-1H-indol-2-carboxamide] | 48.73 | 65.51 | 25.55 | 1.33 | 1.7 | 0.331 |  |  | 
